Data reported in patent US12102637B2, “Pharmaceutical formulations for treating endometriosis, uterine fibroids, polycystic ovary syndrome or adenomyosis” (AbbVie Inc., priority 2017, dated 2024).
Entries after “also recorded” stand apart in the source; their conditions may differ. Marks after values point to notes of the source that are not given here.

How the values were obtained:
[1] = test system: bone mineral density (BMD); experiment: Bone mineral density by DXA (lumbar spine, Z-score) in placebo-controlled and extension studies; type: in vivo, human; settings: for patients with Z-score below the normal lower bound of −2.0: following 12 months of treatment
Protocol: In the placebo-controlled and extension clinical studies, BMD was measured by DXA. Changes observed in BMD at other anatomical sites (femoral neck, total hip) were generally smaller than lumbar spine.

healthy women = experiment: 3-menstrual cycle study in healthy women (ovulation, endometrial thickness); type: in vivo, human; settings: 150 mg QD and 200 mg BID, vs pretreatment
[2] = test system: women treated in Studies EM-1 and EM-2; experiment: Suicidal ideation, suicidal behavior and mood disorders in Studies EM-1 and EM-2; type: in vivo, human
Excerpt: Patients with depressive symptoms should be evaluated to determine whether the risks of continued therapy outweigh the benefits. Patients with new or worsening depression, anxiety or other mood changes should be referred to a mental health professional, as appropriate. Patients with suicidal ideation and behavior should seek immediate medical attention. Benefits and risks of continuing elagolix should be revaluated if such events occur and optionally, elagolix should be stopped with worsening or serious depression, anxiety, mood changes or suicidal ideation.
In the placebo-controlled trials (Studies EM-1 and EM-2), elagolix was associated with adverse mood changes, particularly in those with a history of depression.

[3] = test system: CYP3A, CYP2D6, CYP2C8, uridine glucuronosyltransferases (UGTs); experiment: Metabolism pathways of elagolix; type: in vitro ADME, human
endometrium = experiment: Endometrial biopsies in Study EM-I and its extension; type: in vivo, human; settings: Month 6 and Month 12
Protocol: Endometrial biopsies were performed in subjects in Study EM-I and its extension at Month 6 and Month 12.

[4] = Pharmacokinetic properties of elagolix in healthy subjects; settings: human, in vivo
rats = experiment: 2-year carcinogenicity study in rats; type: in vivo; settings: rat
Excerpt: The rat tumors were identified as being species-specific and of negligible relevance to humans. This conclusion is based on a follow-on thyroid and hepatic effects-related investigative study performed to document the possibility that thyroid and liver tumors may be specific to rat and occurred via induction of hepatic drug metabolizing enzymes at the high dose.

[5] = BCS classification of Compound A; type: physicochemical
Excerpt: Release Profile Drugs administered via oral solid dosage forms should dissolve in vivo before systemic absorption can take place. There are number of factors which affect drug dissolution, including physicochemical properties of the drug substance. […] Incomplete dissolution may result in highly variable inter- and intra patient bioavailability. It has been determined in the present application that Compound A is a BCS class III drug. It also has been determined in the present application that the monosodium salt of Compound A has a tendency to form a gel, particularly when present at an amount greater than about 10% by weight in the absence of an appropriate anti-gelling agent, when administered orally in a solid dosage form. Thus, it is desirable to provide oral solid dosage forms that facilitate drug dissolution.

[6] = test system: premenopausal women with endometriosis with associated pain; experiment: Studies EM-I and EM-II: dysmenorrhea scores and Numeric Rating Scale (NRS) pain; type: in vivo, human
Excerpt: Women in these studies also provided a daily self-assessment of their endometriosis pain using the Numeric Rating Scale (NRS), on a scale ranging from 0 (no pain) to 10 (worst pain ever).

[7] = test system: premenopausal women with endometriosis with associated pain; experiment: Study EM-I: responders on Daily Endometriosis Pain Impact Scale; type: in vivo, human; settings: 150 mg QD
Excerpt: Each placebo-controlled study assessed the reduction in endometriosis-associated pain over 6 months of treatment. More than 75 percent of women who completed Study EM-I and EM-II enrolled in the extension studies for an additional 6 months treatment period. Subjects were followed for up to 12 months post-treatment. See FIGS. 11-14 The co-primary efficacy endpoints were the proportion of responders for dysmenorrhea and pelvic pain not related to menses (also known as non-menstrual pelvic pain [NMPP]) at Month 3 compared to placebo. The primary analysis independently evaluated these endpoints using a daily diary that asked patients to assess their pain and its impact on their daily activities, over the previous 24 hours. […] Women were defined as responders if they experienced clinically meaningful reduction in dysmenorrhea and/or NMPP with no increased analgesic use for endometriosis associated pain. Dyspareunia was evaluated as a secondary endpoint using the Daily Endometriosis Pain Impact Scale.

pKa of elagolix = type: physicochemical
QTc interval = experiment: Thorough QT study; type: in vivo, human; settings: up to 1200 mg; 17- to 23-fold therapeutic concentrations; active control moxifloxacin 400 mg
Protocol: The effect of elagolix (up to 1200 mg) on QTc interval was evaluated in an active-controlled (moxifloxacin 400 mg) thorough QT study.

[8] = test system: cytochrome P450 (CYP) 3A enzyme; experiment: Elagolix as inducer and substrate of CYP3A
Excerpt: Co-administration with elagolix may decrease plasma concentration of drugs that are substrates of CYP3A.
Elagolix is a substrate of CYP3A, P-gp, and organic anion transporting polypeptide (OATP)1B1. Clinically meaningful interactions are not expected when elagolix is co-administered with drugs that inhibit CYP3A or P-gp.

[9] = Elagolix 150 mg QD, On Treatment Month 6
[10] = Elagolix 150 mg QD, On Treatment Month 12
[11] = Elagolix 200 mg BID, On Treatment Month 6
[12] = Elagolix 200 mg BID, On Treatment Month 12

SMILES: COc1cccc(-c2c(C)n(Cc3c(F)cccc3C(F)(F)F)c(=O)n(C[C@H](NCCCC(=O)O)c3ccccc3)c2=O)c1F [Compound A, 4-((R)-2-[5-(2-fluoro-3-methoxy-phenyl)-3-(2-fluoro-6-trifluoromethyl-benzyl)-4-methyl-2,6-dioxo-3,6-dihydro-2H-pyrimidin-1-yl]-1-phenyl-ethylamino)-butyric acid]
- % Subjects Z-score ≤ −1.5 of Lumbar Spine [1, 9]: 0.8%
- Mean Percent Change From Baseline in Bone Mineral Density of Lumbar Spine [1, 9]: −0.52%
- % Subjects Z-score ≤ −1.5 of Lumbar Spine [1, 10]: 1.3%
- Mean Percent Change From Baseline in Bone Mineral Density of Lumbar Spine [1, 10]: −0.87%
- % Subjects Z-score ≤ −1.5 of Lumbar Spine [1, 11]: 4.1%
- Mean Percent Change From Baseline in Bone Mineral Density of Lumbar Spine [1, 11]: −2.54%
- % Subjects Z-score ≤ −1.5 of Lumbar Spine [1, 12]: 5.1%
- Mean Percent Change From Baseline in Bone Mineral Density of Lumbar Spine [1, 12]: −3.76%
- BMD after stopping treatment ([1]; both elagolix treatment groups, lumbar spine, total hip and femoral neck, post-treatment months 6 and 12): progressive recovery of BMD
- patients with Z-score below the normal lower bound of −2.0 ([1]; 150 mg daily dose): no patient
- patients with Z-score below the normal lower bound of −2.0 ([1]; 200 mg BID dose): less than 1%
- mean endometrial thickness (transvaginal ultrasound) (healthy women): dose dependent decrease in the mean endometrial thickness
- Completed Suicide, % ([2]; 150 mg Once Daily (N = 475)): 0.2%
- Depressed Mood, depression, depressive symptoms and or tearfulness, % ([2]; 150 mg Once Daily (N = 475)): 2.7%
- Mood altered, mood swings, % ([2]; 150 mg Once Daily (N = 475)): 5.7%
- Suicidal ideation, % ([2]; 150 mg Once Daily (N = 475)): 0.2%
- Depressed Mood, depression, depressive symptoms and or tearfulness, % ([2]; 200 mg Twice Daily (N = 477)): 6.1%
- Mood altered, mood swings, % ([2]; 200 mg Twice Daily (N = 477)): 5.2%
- Suicidal ideation, % ([2]; 200 mg Twice Daily (N = 477)): 0.2%
- incidence of depression and mood changes ([2]; vs placebo): higher incidence of depression and mood changes compared to placebo
- Metabolism (major pathway) [3]: CYP3A (major)
- Metabolism, minor pathways ([3]; listed as Elagolix): Minor pathways include: CYP2D6,; also recorded: CYP2C8, and uridine; also recorded: glucuronosyltransferases (UGTs)
- endometrial biopsy findings (endometrium): no abnormal biopsy findings post-baseline
- Major route of elimination [4]: Hepatic metabolism
- margin of safety with respect to 200 mg BID in women (rats; both, in vivo, 2 years): 13 fold
- tumors, 2-year carcinogenicity study (rats; high dose): increase in thyroid (male and female) and liver (males only) tumors
- BCS class [5]: BCS class III
- Numeric Rating Scale (NRS) endometriosis pain scores ([6]; 150 mg QD and 200 mg BID, vs placebo at Month 3 and Month 6): highly statistically (p<0.001) significant reduction in NRS scores
- mean decreases from Baseline in dysmenorrhea scores ([6]; both elagolix treatment groups, Month 1 through Month 6, vs placebo): statistically significantly greater than placebo
- Proportion of Responders, Dysmenorrhea (Month 3) [7]: 45.4*** %
- pKa (pKa of elagolix): ~7.89
- Effect on QTc interval (QTc interval): does not prolong the QTc interval
- induction of cytochrome P450 (CYP) 3A enzyme [8]: weak to moderate inducer
- substrate of CYP3A [8]: substrate
